Reference: patent US8637536B2, “Pyrimidinone compounds for use in the treatment of diseases or conditions mediated by Lp-PLA2” (Glaxo Group Limited, priority 2010, dated 2014)
Counter-ions that a name gives are not always drawn. Like-named read-outs stand apart in the source and are kept apart here.

What was measured:
[1] = target: T1, recombinant human Lp-PLA2 (Homo sapiens, UniProt Q13093); experiment: Recombinant human Lp-PLA2 assay (rhLp-PLA2, PED6 assay); format: biochemical
T1 sequence (Q13093 22-441): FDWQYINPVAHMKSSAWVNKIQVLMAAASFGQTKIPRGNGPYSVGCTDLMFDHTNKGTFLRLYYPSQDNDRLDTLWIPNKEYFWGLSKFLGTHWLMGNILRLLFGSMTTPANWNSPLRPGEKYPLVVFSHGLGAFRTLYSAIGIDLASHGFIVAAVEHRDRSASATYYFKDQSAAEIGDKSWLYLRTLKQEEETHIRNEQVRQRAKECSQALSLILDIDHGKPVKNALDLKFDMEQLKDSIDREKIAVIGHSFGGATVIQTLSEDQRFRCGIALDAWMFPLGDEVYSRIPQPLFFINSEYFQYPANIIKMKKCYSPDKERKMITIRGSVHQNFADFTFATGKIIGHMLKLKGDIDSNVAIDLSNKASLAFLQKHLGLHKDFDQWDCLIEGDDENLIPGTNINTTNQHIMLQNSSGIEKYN
Description: (1) Recombinant Human Lp-PLA2 Assay (rhLp-PLA2) (Also Referred to as “PED6” Assay)
N-((6-(2,4-dinitrophenyl)amino)-hexanoyl)-2-(4,4-difluoro-5,7-dimethyl-4-bora-3a,4a-diaza-s-indacene-3-pentanoyl)-1-hexadecanoyl-sn-glycero-3-phosphoethanolamine, triethylammonium salt (PED6) is a commercially available fluorescently-labelled phospholipid, which is commercially available from Molecular Probes. There is a quenching […] position and a Bodipy fluorescein (FL) group in the sn2 position.
The PED6 assay was run as an unquenched 10 μL assay. Compounds source plate was prepared by making 1:3 (by volume) serial dilution of the compounds into pure DMSO on 384-well microplate. […] 5 μL of recombinant human Lp-PLA2 enzyme (2 nM rhLp-PLA2 in assay buffer of 50 mM HEPES, pH7.4, 150 mM NaCl, 1 mM CHAPS) was added to each well of the plate with compounds. Plates were centrifuged for 10 sec at 500 rpm. […] Plates were centrifuged for 10 sec at 500 rpm. Plate was covered to protect from light and incubated for 20 min at room temperature. […] PIC50 data, curve and QC analysis was conducted by using XL fit module in Excel.

[2] = target: T2, Lp-PLA2 from plasma (pooled human plasma) (Homo sapiens, UniProt Q13093); experiment: Lp-PLA2 human plasma assay (Thio-PAF assay); format: biochemical; conditions: text thresholds, read-out: pIC50 values in the thio-PAF assay (converted)
T2 construct: 8 μL pooled human plasma; from tissue; host or cells: pooled human plasma
T2 sequence (Q13093 22-441): T1 sequence (Q13093 22-441)
Description: (3) Lipoprotein-Associated Phospholipase A2 (Lp-PLA2) Human Plasma Assay (Also Referred to as “Thio-PAF Assay”)
The human plasma assay utilizes a thioester analog of PAF (phosphatidylcholine), where hydrolysis yields to the formation of a phospholipid containing a free thiol group. The amount of thiol is quantitated continuously by reacting with CPM (7-diethylamino-3-(4′-maleimidylphenyl)-4-methylcoumarin), a maleimide which increases in fluoresence after Michael addition of thiols. This assay may detect the activity of Lp-PLA2 from plasma, as determined by specific inhibition by Lp-PLA2 inhibitors.
The thio-PAF assay was run as a quenched 15 μL assay. Compounds source plate was prepared by making 1:3 (by volume) serial dilution of the compounds into pure DMSO on 384-well microplate. 0.01 μL of compounds on compound source plate were transferred to 384 well Greiner 784076 (black) low-volume plates by ECHO liquid dispenser. 8 μL pooled human plasma, which was previously aliquoted and frozen, was added. Plates were centrifuged for 10 sec at 500 rpm. After 30 minutes preincubation, 2 μL of substrate (2.5 mM thio-PAF, 3.2 mM NEM (N-ethylmaleimide) [made fresh daily in DMSO], and 32 μM CPM [from a DMSO stock] in assay buffer of 50 mM HEPES, pH7.4, 150 mM NaCl, 1 mM CHAPS was added to 384 well Greiner 784076 (black) low-volume plates by BRAVO liquid handling station. Plates were centrifuged for 10 sec at 500 rpm. Plate was covered to protect from light and incubated for 2 min at room temperature. Reaction was quenched with 5 μL of 5% aqueous trifluoroacetic acid (TFA). Plates were covered to protect from light and incubated for 40 min at room temperature. Plates were read at ex: 380/em: 485 using-Envision microplate reader. PIC50 data, curve and QC analysis was conducted by using XLFit module in Excel.

[3] = tested on: proinflammatory (M1) and anti-inflammatory (M2) markers in macrophages; experiment: EAE model (MBP immunization), ex vivo realtime PCR analysis of M1 and M2 macrophage markers; format: in vivo, rats; conditions: macrophages ex vivo (splenic, day 13 post MBP-immunization; CNS infiltrating cells), compound treated vs control
Protocol: A further study was carried out to study the impact of Lp-PLA2 inhibitors on modulating M1/M2 imbalance. In this study, rats were induced to develop experimental autoimmune encephalomyelitis (EAE) by immunization with myelin basic protein (MBP) antigen and treated with a known Lp-PLA2 inhibitor: 549-Methoxy-4-oxo-6,7-dihydro-4H-pyrimido[6,1-a]isoquinolin-2-yl)oxy)-2-(3-(trifluoromethyl)phenoxy)benzonitrile (See PCT application no. PCT/CN2011/001597) For preventive treatment, compound administration started at day 0 whereas it started at 7 day in therapeutic treatment. Rats were subsequently monitored for symptoms of EAE. Rats were immunized with MBP to develop EAE and symptoms were monitored daily. Plasma Lp-PLA2 activity and LysoPC concentration were determined at different time points through the course of EAE.
Ex vivo analysis of proinflammatory (M1) and anti-inflammatory (M2) markers in control and compound treated EAE […]. Splenic macrophages were harvested at day 13 post MBP-immunization and assayed for expression of a variety of markers by realtime PCR. CNS infiltrating cells were harvested and macrophages were analyzed for expression of M1 and M2 markers by realtime PCR.

[4] = text thresholds, upper limit for pIC50 in this assay is 9.3, read-out: pIC50 values in the PED6 assay (converted)
[5] = upper limit for pIC50 obtained in this PED6 assay is 9.3, read-out: rhLp-PLA2 (PED6 assay) (pIC50) (converted)

Structure (SMILES) | IC50 [1, 4] | IC50 [2] | M1 markers (expression by realtime PCR) [3] | M2 markers (expression by realtime PCR) [3] | IC50 [1, 5]
Cn1cc(Cc2cn(C)c(SCc3ccc(Oc4cccc(C(F)(F)F)c4)c(C#N)c3)nc2=O)cn1 [E95, 5-(((1-methyl-5-((1-methyl-1H-pyrazol-4-yl)methyl)-4-oxo-1,4-dihydropyrimidin-2-yl)thio)methyl)-2-(3-(trifluoromethyl)phenoxy)benzonitrile, trifluoroacetic acid salt] | ≤ 1 nM | ≤ 100 nM | – | – | –
COc1ncc(Cc2cn(C)c(SCc3ccc(Oc4ccc(F)c(C(F)(F)F)c4)c(C#N)c3)nc2=O)cn1 [E90, 2-{[4-fluoro-3-(trifluoromethyl)phenyl]oxy}-5-{[(1-methyl-5-{[2-(methyloxy)-5-pyrimidinyl]methyl}-4-oxo-1,4-dihydro-2-pyrimidinyl)thio]methyl}benzonitrile] | ≤ 1 nM | ≤ 100 nM | – | – | –
COc1ncc(Cc2c[nH]c(SCc3ccc(Oc4ccc(Cl)c(C(F)(F)F)c4)c(C#N)c3)nc2=O)cn1 [E84, 2-{[4-chloro-3-(trifluoromethyl)phenyl]oxy}-5-{[(5-{[2-(methyloxy)-5-pyrimidinyl]methyl}-4-oxo-1,4-dihydro-2-pyrimidinyl)thio]methyl}benzonitrile] | ≤ 1 nM | ≤ 1000 nM | – | – | –
COc1ccc2c(c1)CCn1c-2cc(Oc2ccc(Oc3cccc(C(F)(F)F)c3)c(C#N)c2)nc1=O | – | – | decrease | increase | –
COc1ncc(Cc2c[nH]c(NCCc3ccc(Oc4ccc(C(F)(F)F)c(Cl)c4)cc3)nc2=O)cn1 [E206, 2-{2-[4-(3-chloro-4-trifluoromethyl-phenoxy)-phenyl]ethylamino}-5-(2-methoxy-pyrimidin-5-ylmethyl)-1H-pyrimidin-4-one] | ≤ 10 nM | ≤ 1000 nM | – | – | –
N#Cc1cc(CSc2nc(=O)c(Cc3cncnc3)c[nH]2)ccc1Oc1ccc(F)c(C(F)(F)F)c1 [E87, 2-{[4-fluoro-3-(trifluoromethyl)phenyl]oxy}-5-({[4-oxo-5-(5-pyrimidinylmethyl)-1,4-dihydro-2-pyrimidinyl]thio}methyl)benzonitrile] | ≤ 1 nM | ≤ 1000 nM | – | – | –
O=c1nc(NCCc2ccc(Oc3ccc(F)cc3)cc2)[nH]cc1Cc1cncnc1 [E188, 2-{2-[4-(4-Fluoro-phenoxy)-phenyl]-ethylamino}-5-pyrimidin-5-ylmethyl-1H-pyrimidin-4-one] | ≤ 10 nM | ≤ 100 nM | – | – | –
COc1ncc(Cc2c[nH]c(NCCc3ccc(Oc4ccc(C(F)(F)F)cn4)c(C#N)c3)nc2=O)cn1 [E202, 5-{2-[5-(2-methoxy-pyrimidin-5-ylmethyl)-4-oxo-1,4-dihydro-pyrimidin-2-yl]-amino}-ethyl-2-(5-trifluoromethyl-pyridin-2-yloxy)benzonitrile] | ≤ 10 nM | ≤ 100 nM | – | – | 7.94 nM
N#Cc1cc(CCNc2nc(=O)c(Cc3cncnc3)c[nH]2)ccc1Oc1ccc(C(F)(F)F)cn1 [E205, 5-[2-(4-oxo-5-pyrimidin-5-ylmethyl-1,4-dihydro-pyrimidin-2-ylamino)-ethyl]-2-(5-trifluoromethyl-pyridin-2-yloxy)benzonitrile] | ≤ 10 nM | ≤ 1000 nM | – | – | –
O=c1cc(Cc2c[nH]c(NCCc3ccc(Oc4ccc(Cl)c(C(F)(F)F)c4)cc3)nc2=O)cc[nH]1 [E216, 2-{2-[4-(4-Chloro-3-trifluoromethyl-phenoxy)-phenyl]-ethylamino}-5-(2-oxo-1,2-dihydro-pyridin-4-ylmethyl)-1H-pyrimidin-4-one] | ≤ 10 nM | ≤ 1000 nM | – | – | 3.16 nM
COc1ncc(Cc2c[nH]c(OCCc3ccc(Oc4cnc(C(F)(F)F)nc4)cc3)nc2=O)cn1 [E143, 5-{[2-(methyloxy)-5-pyrimidinyl]methyl}-2-{[2-(4-{[2-(trifluoromethyl)-5-pyrimidinyl]oxy}phenyl)ethyl]oxy}-4(1H)-pyrimidinone] | ≤ 10 nM | ≤ 1000 nM | – | – | –
Cn1cc(Cc2cncnc2)c(=O)nc1SCc1ccc(Oc2cccc(C(F)(F)F)c2)c(C#N)c1 [E97, 5-({[1-methyl-4-oxo-5-(5-pyrimidinylmethyl)-1,4-dihydro-2-pyrimidinyl]thio}methyl)-2-{[3-(trifluoromethyl)phenyl]oxy}benzonitrile] | ≤ 1 nM | ≤ 100 nM | – | – | –
Cc1ncc(Cc2c[nH]c(NCCc3ccc(Oc4ccc(Cl)c(C(F)(F)F)c4)cc3)nc2=O)cn1 [E195, 2-{2-[4-(4-Chloro-3-trifluoromethyl-phenoxy)-phenyl]-ethylamino}-5-(2-methyl-pyrimidin-5-ylmethyl)-1H-pyrimidin-4-one] | ≤ 10 nM | ≤ 100 nM | – | – | –
COc1ncc(Cc2c[nH]c(OCCc3ccc(Oc4ccc(C)c(Cl)c4)cc3)nc2=O)cn1 [E151, 2-[(2-{4-[(3-chloro-4-methylphenyl)oxy]phenyl}ethyl)oxy]-5-{[2-(methyloxy)-5-pyrimidinyl]methyl}-4(1H)-pyrimidinone] | ≤ 1 nM | ≤ 100 nM | – | – | –
Cc1noc(Cc2c[nH]c(OCCc3ccc(Oc4ccc(Cl)c(C(F)(F)F)c4)cc3)nc2=O)n1 [E133, 2-{[2-(4-{[4-chloro-3-(trifluoromethyl)phenyl]oxy}phenyl)ethyl]oxy}-5-[(3-methyl-1,2,4-oxadiazol-5-yl)methyl]-4(1H)-pyrimidinone] | ≤ 10 nM | ≤ 1000 nM | – | – | 3.16 nM
